Test results from patent US5736380A, “Maltose-trehalose converting enzyme, and preparation and uses thereof” (Kabushiki Kaisha Hayashibara Seibutsu Kagaku Kenkyujo, priority 1993, dated 1998).

Tests used:
mice = test: Acute toxicity test, oral; type: in vivo; conditions: highest level of dose administrable
Procedure: (§1) By using mice, the high-purity trehalose specimen with a purity of 99.8%, d.s.b., prepared in Experiment 8 was orally administered to the mice for its acute toxicity test. […] Though it is not so accurate, the LD50 was determined to be 50 g/kg or higher.

[1] = Acute toxicity test, oral; type: in vivo; conditions: mouse, in vivo, mice, not so accurate
Procedure: as §1

[2] = Physicochemical property of trehalose: solubility in water; conditions: at 25° C., for anhydrous trehalose
Procedure: A high-purity trehalose specimen prepared by the method in Experiment 8 was studied on its physicochemical property. As a result, the melting point was determined as 97.0° C., the specific rotation was [α]D^20 +199° […].

[3] = Utilization test in vivo (blood sugar- and insulin-levels after oral administration); conditions: 30 g as 20 w/v % aqueous solution, orally, healthy male volunteers
Procedure: In accordance with the method as reported by H. Atsuji et al. in Journal of Clinical Nutrition, Vol.41, No.2, pp.200-208 (1972), 30 g of the high-purity trehalose specimen with a purity of 99.8%, d.s.b., in Experiment 8 was prepared into a 20 w/v % aqueous solution which was then orally administered to 3 healthy male volunteers, and their bloods were sampled at prescribed time intervals, followed by the measurements of the blood sugar- and insulin-levels. As a control glucose was used. […] Thus, the present trehalose and saccharide composition containing the same are suitably used as an energy-supplementing saccharide.

[4] = biological target: T1, maltose-trehalose converting enzyme derived from Pimelobacter sp. R48 (Pimelobacter sp., UniProt P72235); test: Action on saccharides (TLC before and after enzymatic reaction); type: biochemical; conditions: 20° C., pH 7.0, 24 hours
T1 construct: The culture obtained in Experiment 1 was centrifuged to obtain an about 0.5 kg wet cells; endogenous in cells; host or cells: Pimelobacter sp; R48 (FERM BP-4315), enzyme purified from the disrupted wild-type cells
T1 sequence (P72235 1-573): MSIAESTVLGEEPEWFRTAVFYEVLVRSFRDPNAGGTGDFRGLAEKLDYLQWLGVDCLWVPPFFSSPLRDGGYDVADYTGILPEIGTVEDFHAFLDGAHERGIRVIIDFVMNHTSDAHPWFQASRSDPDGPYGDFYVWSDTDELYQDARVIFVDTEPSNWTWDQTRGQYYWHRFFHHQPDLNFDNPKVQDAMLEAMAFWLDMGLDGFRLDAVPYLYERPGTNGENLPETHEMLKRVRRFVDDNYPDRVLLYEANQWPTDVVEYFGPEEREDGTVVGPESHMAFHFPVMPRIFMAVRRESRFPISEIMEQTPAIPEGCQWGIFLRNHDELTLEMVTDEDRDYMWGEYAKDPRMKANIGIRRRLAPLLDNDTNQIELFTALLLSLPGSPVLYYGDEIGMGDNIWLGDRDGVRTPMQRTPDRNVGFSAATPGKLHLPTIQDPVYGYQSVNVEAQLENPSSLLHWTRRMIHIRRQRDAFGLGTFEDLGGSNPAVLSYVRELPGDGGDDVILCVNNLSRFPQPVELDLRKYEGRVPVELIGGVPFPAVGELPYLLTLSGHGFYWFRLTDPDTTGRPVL
Procedure: A variety of saccharides were tested for determining whether they could be used as a substrate for the present enzyme. Glucose, maltose, maltotriose,maltotetraose, maltopentaose, maltohexaose, maltoheptaose, soluble starch, amylose having an average polymerization degree of 18, trehalose, neotrehalose, gentiobiose, kojibiose, isomaltose, cellobiose, maltitol, sucrose, maltulose, turanose, paratinose, trehalulose or lactose was prepared into a solution. A solution containing glucose and the equal amount of α-glucose 1-phosphate or β-glucose 1-phosphate was prepared.
(§2) The solutions were respectively mixed with 2 units/g substrate, d.s.b., of a maltose-trehalose converting enzyme obtained by the method in Experiment 2, adjusted their substrate concentrations to 5 w/v %, and subjected to enzymatic reaction at 20° C. and pH 7.0 for 24 hours. The solutions before and after their enzymatic reactions were subjected to thin layer chromatography (TLC) using "[…] 60 (20×20 cm)", an aluminum plate for TLC commercialized by Merck & Co., Inc., Rahway, USA, for determining whether the present enzyme acts on the saccharides. The resultant products were developed once on the plates by using a developing solvent system of 1-butanol, pyridine and water (=6:4:1 by volume). The products on the plates were colored by spraying thereto a 20 v/v % sulfuric acid in methanol, and heating the plates at 110° C. for 10 min.

[5] = biological target: enzyme from Pseudomonas putida H262 (Pseudomonas putida, UniProt Q88FN0); test: Action on saccharides (TLC), 35° C.; type: biochemical
Sequence of enzyme from Pseudomonas putida H262 (Q88FN0 entry or part of it): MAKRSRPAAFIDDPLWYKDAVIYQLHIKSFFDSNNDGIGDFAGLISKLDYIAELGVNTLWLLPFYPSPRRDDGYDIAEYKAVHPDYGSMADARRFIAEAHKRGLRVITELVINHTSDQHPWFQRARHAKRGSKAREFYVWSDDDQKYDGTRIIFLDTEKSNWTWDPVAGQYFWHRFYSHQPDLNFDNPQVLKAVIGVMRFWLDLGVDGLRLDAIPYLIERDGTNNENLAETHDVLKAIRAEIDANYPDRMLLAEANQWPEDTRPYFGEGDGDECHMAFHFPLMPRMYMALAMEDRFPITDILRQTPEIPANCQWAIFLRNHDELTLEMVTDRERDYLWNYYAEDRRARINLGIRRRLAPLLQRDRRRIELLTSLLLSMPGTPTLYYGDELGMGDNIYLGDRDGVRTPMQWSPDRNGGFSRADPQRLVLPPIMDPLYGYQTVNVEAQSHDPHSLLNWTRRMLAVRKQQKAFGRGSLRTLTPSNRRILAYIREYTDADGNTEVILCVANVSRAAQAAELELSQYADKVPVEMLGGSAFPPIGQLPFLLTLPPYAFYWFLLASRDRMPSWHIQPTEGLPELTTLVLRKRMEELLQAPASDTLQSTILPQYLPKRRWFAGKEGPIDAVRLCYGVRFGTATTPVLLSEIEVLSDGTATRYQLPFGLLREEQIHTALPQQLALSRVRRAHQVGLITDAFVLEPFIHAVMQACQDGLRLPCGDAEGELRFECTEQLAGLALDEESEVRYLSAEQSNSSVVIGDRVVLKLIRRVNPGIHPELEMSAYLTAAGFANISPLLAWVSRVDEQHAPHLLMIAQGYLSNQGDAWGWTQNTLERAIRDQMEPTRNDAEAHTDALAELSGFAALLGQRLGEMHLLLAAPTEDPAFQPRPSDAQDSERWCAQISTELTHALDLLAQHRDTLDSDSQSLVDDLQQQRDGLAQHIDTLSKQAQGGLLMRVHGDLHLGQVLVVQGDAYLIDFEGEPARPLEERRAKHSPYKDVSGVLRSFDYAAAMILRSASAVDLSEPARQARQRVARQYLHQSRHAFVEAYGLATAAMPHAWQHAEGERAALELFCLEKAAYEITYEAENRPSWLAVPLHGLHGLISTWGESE
Procedure: A variety of saccharides were tested for determining whether they could be used as a substrate for the present enzyme.
as §2
A variety of saccharides were tested for determining whether they could be used as a substrate for the present enzyme from Pseudomonas putida H262 obtained in Experiment 10 in accordance with the method in Experiment 4 except for setting the reaction temperature to 35° C. Similarly as the enzyme from Pseudomonas putida H262, the enzyme from Pimelobacter sp.

[6] = tested on: Partially purified enzymes derived from known microorganisms of the genus Thermus; test: Action on saccharides, partially purified enzymes; type: biochemical; conditions: method of Experiment 18
Procedure: A variety of saccharides were tested for determining whether they could be used as a substrate for the present enzyme from Thermus aquaticus (ATCC 33923), obtained in accordance with the method in Experiment 4 except for setting the reaction temperature to 50° C. Similarly as the enzymes from Pimelobacter sp.
Among conventional microorganisms, a microorganism which had been confirmed its ability to form the present maltose-trehalose converting enzyme was incubated in an Erlenmeyer flask for 48 hours in accordance with Experiment 15. After analyzed the enzyme activity, the resultant culture was subjected to a cell disrupting apparatus in accordance with Experiment 16. From the resultant mixture a supernatant was prepared and dialyzed to obtain a partially purified enzyme, followed by analyzing the property in accordance with Experiment 17.
Partially purified enzymes derived from known microorganisms of the genus Thermus as shown in Table 12 were studied on their action on a variety of saccharides in accordance with the method in Experiment 18.

SMILES | mortality (mice) | LD50 [1] | solubility in water [2] | blood sugar- and insulin-levels compared with glucose control [3] | time of the maximum of blood sugar-level after the administration [3] | time of the maximum of insulin-level after the administration [3] | action of enzyme on saccharide [4] | action of enzyme on saccharide [5] | action of enzyme on saccharide [6] | Action of enzyme ([4]; 2 units/g substrate, substrate 5 w/v %)
OC[C@H]1O[C@H](O[C@H]2O[C@H](CO)[C@@H](O)[C@H](O)[C@H]2O)[C@H](O)[C@@H](O)[C@@H]1O [high-purity trehalose specimen, trehalose] | no mouse died | ≥ 50000 mg/kg | 77.0 g | behaved similarly as glucose | 0.5 to 1 h | 0.5 to 1 h | – | – | – | –
OC[C@H]1O[C@H](O[C@H]2O[C@H](CO)[C@@H](O)[C@H](O)[C@H]2O)[C@H](O)[C@@H](O)[C@@H]1O [Trehalose] | – | – | – | – | – | – | only acts on | specifically acted on | specifically acted on | –
OC[C@H]1O[C@H](O[C@H]2[C@H](O)[C@@H](O)[C@H](O)O[C@@H]2CO)[C@H](O)[C@@H](O)[C@@H]1O [Maltose] | – | – | – | – | – | – | only acts on | specifically acted on | specifically acted on | + +
